Patent publication US20140315886A1, “QUINAZOLINES AS THERAPEUTIC COMPOUNDS AND RELATED METHODS OF USE” (OTSUKA PHARMACEUTICAL CO., LTD., priority 2011, published 2014)

The molecules below were run against T1, purified STEP46 enzyme (Homo sapiens, UniProt P54829) (assay: STEP46 biochemical assay (DiFMUP fluorescence phosphatase assay)). Conditions: DiFMUP 10 μM, read-out: STEP IC50.
T1 sequence (P54829 197-565 limits assumed): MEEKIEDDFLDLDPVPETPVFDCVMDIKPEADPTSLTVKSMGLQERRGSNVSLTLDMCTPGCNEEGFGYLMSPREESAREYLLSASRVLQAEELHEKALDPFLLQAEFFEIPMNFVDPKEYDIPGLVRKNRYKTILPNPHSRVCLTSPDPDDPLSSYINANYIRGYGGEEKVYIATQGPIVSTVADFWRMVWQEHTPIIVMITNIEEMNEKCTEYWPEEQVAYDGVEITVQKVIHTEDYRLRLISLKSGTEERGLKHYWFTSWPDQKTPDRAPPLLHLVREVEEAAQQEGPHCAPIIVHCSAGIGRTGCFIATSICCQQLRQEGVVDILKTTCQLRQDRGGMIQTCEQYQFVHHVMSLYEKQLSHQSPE
Protocol: Serial dilutions of compounds were performed in 100% DMSO and 1 uL of compounds were dispensed into 384-well black polystyrene plates (Corning, N.Y.). Compounds were incubated with 24 uL of buffer containing 50 mM Hepes, 1 mM DTT, 0.02% Brij35, 1 ng/well purified STEP46 enzyme for […] at room temperature. The reaction was initiated by addition of 25 uL of DiFMUP (6,8-difluoro-4-methylumbelliferyl phosphate) (InVitrogen, CA) with a final concentration of 10 μM and incubated at 27° C. for 90 mM Final DMSO concentration is 2%. Plates were read with florescence intensity at excitation/emission of 360/460 nm using a PheraStar plate reader (BMG Labtech, NC).
Data were expressed as percentage (%) inhibition of enzyme activity. 0% inhibition is defined as the RFUs (relative fluorescence units) in the absence of compounds and 100% inhibition is defined as RFUs in the absence of STEP46 enzyme. IC50 values of compounds with inhibitory activity against STEP46 were determined by GraphPad Prism (version 4.03) using four parameter logistic equation. Some compounds act as activators. For compounds showing STEP46 enzymatic activation, data are represented as percentage of inhibition but with negative values at three representative concentrations (25, 50 and 100 uM).
CNc1nc(-c2cccnc2)nc2c(OC)cc(-c3ccc(F)cc3)cc12 [Compound 259] gave an IC50 greater than 10 µM. With CNc1nc(-c2cccnc2)nc2c(OC)cc(-c3ccc(C#N)cc3)cc12 [Compound 260] the IC50 was greater than 10 µM. Work on CNc1nc(-c2cccnc2)nc2ccc(-c3cc(OC(F)(F)F)ccc3F)cc12 [Compound 263] yielded an IC50 of 1 to 10 µM. CNc1nc(-c2cccnc2)nc2c(Cl)cc(-c3cccc(F)c3)cc12 [Compound 264] gave an IC50 of 1 to 10 µM. CNc1nc(-c2cccnc2)nc2ccc(-c3cccc(C)c3Cl)cc12 [Compound 268] gave an IC50 greater than 10 µM. Work on CNc1nc(-c2cccnc2)nc2c(-c3cccc(C#N)c3)cccc12 [Compound 272] yielded an IC50 of less than 1 µM. In the case of CNc1nc(-c2cccnc2)nc2cc(-c3ccc(C)o3)ccc12 [Compound 273], the IC50 is reported as 1 to 10 µM. Work on CNc1nc(-c2cccnc2)nc2c(-c3cccc(F)c3)cccc12 [Compound 274] yielded an IC50 of 1 to 10 µM. With CNc1nc(-c2cccnc2)nc2cc(-c3ccoc3C)ccc12 [Compound 275] the IC50 was greater than 10 µM. CNc1nc(-c2cccnc2)nc2cc(-c3cc(C)oc3C)ccc12 [Compound 276] gave an IC50 greater than 10 µM. With CNc1nc(-c2cccnc2)nc2c(-c3cc(F)cc(F)c3)cccc12 [Compound 277] the IC50 was greater than 10 µM. In the case of CNc1nc(-c2cccnc2)nc2c(-c3ccc(F)c(F)c3)cccc12 [Compound 278], the IC50 is reported as 1 to 10 µM. In the case of CNc1nc(-c2cccnc2)nc2cc(-c3cc(F)cc(OC)c3)ccc12 [Compound 279], the IC50 is reported as less than 1 µM. CNc1nc(-c2cccnc2)nc2ccc(-c3cc(F)nc(F)c3)cc12 [Compound 283] gave an IC50 of 1 to 10 µM. Molecule CNc1nc(-c2cccnc2)nc2cc(-c3cc(F)nc(F)c3)ccc12 [Compound 284] has an IC50 of less than 1 µM. Molecule CNc1nc(-c2cccnc2)nc2ccc(-c3cc(C)oc3C)cc12 [Compound 285] has an IC50 of 1 to 10 µM. Molecule CNc1nc(-c2cccnc2)nc2c(C)c(-c3ccc(F)c(F)c3F)ccc12 [Compound 286] has an IC50 of 1 to 10 µM. Work on CNc1nc(-c2cccnc2)nc2c(C)c(-c3cc(F)c(F)cc3F)ccc12 [Compound 287] yielded an IC50 greater than 10 µM. For CNc1nc(-c2cccnc2)nc2c(C)c(-c3cc(F)cc(F)c3F)ccc12 [Compound 288], the IC50 was 1 to 10 µM. With CNc1nc(-c2cccnc2)nc2c(C)c(-c3cc(F)c(F)c(F)c3)ccc12 [Compound 289] the IC50 was less than 1 µM. Cc1c(-c2cccc(C#N)c2)ccc2c(N(C)C)nc(-c3cccnc3)nc12 [Compound 290] showed an IC50 greater than 10 µM. Cc1c(-c2ccc(C#N)cc2)ccc2c(N(C)C)nc(-c3cccnc3)nc12 [Compound 291] was tested, and the IC50 was 1 to 10 µM. Work on Cc1c(-c2cc(F)c(F)c(F)c2)ccc2c(N(C)C)nc(-c3cccnc3)nc12 [Compound 292] yielded an IC50 of 1 to 10 µM. Molecule CNc1nc(-c2cccnc2)nc2c(C)c(-c3ccncc3)ccc12 [Compound 293] has an IC50 of 1 to 10 µM. CNc1nc(-c2cccnc2)nc2c(C)c(-c3ccc(C)cc3)ccc12 [Compound 296] was tested, and the IC50 was greater than 10 µM. Work on CNc1nc(-c2cccnc2)nc2c(C)c(-c3ccccc3C)ccc12 [Compound 297] yielded an IC50 greater than 10 µM. Molecule CNc1nc(-c2cccnc2)nc2c(C)c(-c3ccc4c(cnn4C)c3)ccc12 [Compound 298] has an IC50 of less than 1 µM. CNc1nc(-c2cccnc2)nc2cc(C)c(-c3cccc(F)c3)cc12 [Compound 299] showed an IC50 of 1 to 10 µM. Work on CNc1nc(-c2cccnc2)nc2cc(C)c(-c3ccc(F)c(F)c3F)cc12 [Compound 301] yielded an IC50 of 1 to 10 µM. For CNc1nc(-c2cccnc2)nc2cc(C)c(-c3ccc(F)c(OC)c3)cc12 [Compound 304], the IC50 was greater than 10 µM. In the case of CNc1nc(-c2cccnc2)nc2c(OC)cc(-c3cccc(Cl)c3)cc12 [Compound 305], the IC50 is reported as 1 to 10 µM. Molecule CNc1nc(-c2cccnc2)nc2c(OC)cc(-c3ccccc3Cl)cc12 [Compound 306] has an IC50 of 1 to 10 µM. Work on CNc1nc(-c2cccnc2)nc2c(OC)cc(-c3ccc(Cl)cc3)cc12 [Compound 307] yielded an IC50 of 1 to 10 µM. For CN(C)c1nc(-c2cccnc2)nc2ccc(-c3ccc(C4CC4)cc3)cc12 [Compound 308], the IC50 was greater than 10 µM. In the case of Nc1nc(-c2cccnc2)nc2cc(-c3cc(F)c(F)c(F)c3)ccc12 [Compound 312], the IC50 is reported as 1 to 10 µM. Work on CN(C)c1nc(-c2cccnc2)nc2cc(-c3cc(F)c(F)c(F)c3)ccc12 [Compound 313] yielded an IC50 of 1 to 10 µM. For CN(C)CCCN(C)c1nc(-c2cccnc2)nc2cc(-c3cc(F)ccc3F)ccc12 [Compound 314], the IC50 was greater than 10 µM. CNc1nc(-c2cccnc2)nc2cc(-c3cc(F)ccc3OC)ccc12 [Compound 316] showed an IC50 of 1 to 10 µM. Work on CNc1nc(-c2cccnc2)nc2cc(-c3ccco3)ccc12 [Compound 317] yielded an IC50 greater than 10 µM. Molecule CNc1nc(-c2cccnc2)nc2cc(-c3ccoc3)ccc12 [Compound 318] has an IC50 greater than 10 µM. Molecule CNc1nc(-c2cccnc2)nc2cc(-c3cccs3)ccc12 [Compound 319] has an IC50 of 1 to 10 µM. CNc1nc(-c2cccnc2)nc2cc(-c3ccsc3)ccc12 [Compound 320] showed an IC50 of 1 to 10 µM. CNc1nc(-c2cccnc2)nc2cc(-c3ccc(F)cc3C)ccc12 [Compound 321] was tested, and the IC50 was 1 to 10 µM. Molecule CNc1nc(-c2cccnc2)nc2cc(-c3ccc(F)cc3OC)ccc12 [Compound 322] has an IC50 of 1 to 10 µM. Work on CNc1nc(-c2cccnc2)nc2cc(-c3c(F)ccc(F)c3C)ccc12 [Compound 323] yielded an IC50 greater than 10 µM. CNc1nc(-c2cccnc2)nc2cc(-c3cccc(F)c3C)ccc12 [Compound 324] gave an IC50 of 1 to 10 µM. For Fc1cc(F)cc(-c2ccc3nc(-c4ccnnc4)nc(NCc4ccccn4)c3c2)c1 [Compound 328], the IC50 was 1 to 10 µM. For Fc1ccc(-c2ccc3nc(-c4ccnnc4)nc(NCc4ccccn4)c3c2)c(F)c1 [Compound 329], the IC50 was 1 to 10 µM. Fc1cccc(-c2ccc3nc(-c4ccnnc4)nc(NCc4ccccn4)c3c2)c1F [Compound 333] showed an IC50 greater than 10 µM. Fc1cccc(-c2ccc3nc(-c4cccnc4)nc(NCCc4ccccn4)c3c2)c1 [Compound 336] was tested, and the IC50 was 1 to 10 µM. Fc1ccc(-c2ccc3nc(-c4cccnc4)nc(NCCc4ccccn4)c3c2)cc1 [Compound 337] showed an IC50 greater than 10 µM. For Fc1ccc(F)c(-c2ccc3nc(-c4cccnc4)nc(NCCc4ccccn4)c3c2)c1 [Compound 339], the IC50 was 1 to 10 µM. Work on Fc1ccc(-c2ccc3c(NCCc4ccccn4)nc(-c4cccnc4)nc3c2)cc1 [Compound 340] yielded an IC50 of 1 to 10 µM. With Cn1ccc2c(-c3ccc4nc(-c5cccnc5)nc(NCc5ccccn5)c4c3)cccc21 [Compound 341] the IC50 was greater than 10 µM. Work on Cn1ccc2cc(-c3ccc4nc(-c5cccnc5)nc(NCc5ccccn5)c4c3)ccc21 [Compound 342] yielded an IC50 of less than 1 µM. Molecule c1ccc(CNc2nc(-c3cccnc3)nc3ccc(-c4cc5ccccc5o4)cc23)nc1 [Compound 343] has an IC50 of less than 1 µM. COc1ccc(-c2ccc3nc(-c4cccnc4)nc(NCc4ccccn4)c3c2)cc1 [Compound 344] was tested, and the IC50 was 1 to 10 µM. With c1ccc(CCNc2nc(-c3cccnc3)nc3ccc(-c4cc5ccccc5o4)cc23)nc1 [Compound 345] the IC50 was 1 to 10 µM. Cn1ccc2cc(-c3ccc4nc(-c5cccnc5)nc(NCCc5ccccn5)c4c3)ccc21 [Compound 346] showed an IC50 of less than 1 µM. In the case of c1ccc(CNc2nc(-c3cccnc3)nc3cc(-c4cc5ccccc5o4)ccc23)nc1 [Compound 347], the IC50 is reported as 1 to 10 µM. With c1ccc(CNc2nc(-c3cccnc3)nc3ccc(-c4ccco4)cc23)nc1 [Compound 348] the IC50 was 1 to 10 µM. In the case of CC(Nc1nc(-c2cccnc2)nc2ccc(-c3cc(F)cc(F)c3)cc12)c1ccccc1 (centres unmarked) [Compound 349], the IC50 is reported as 1 to 10 µM. CC(Nc1nc(-c2cccnc2)nc2ccc(-c3ccc(F)c(F)c3)cc12)c1ccccc1 (centres unmarked) [Compound 350] showed an IC50 of 1 to 10 µM. Fc1ccc(CNc2nc(-c3cccnc3)nc3ccc(-c4cccc(F)c4F)cc23)cc1F [Compound 361] showed an IC50 greater than 10 µM. CC(Nc1nc(-c2cccnc2)nc2ccc(-c3ccccc3F)cc12)c1ccccn1 (centres unmarked) [Compound 366] was tested, and the IC50 was 1 to 10 µM. Molecule CC(Nc1nc(-c2cccnc2)nc2cc(-c3cc(F)ccc3F)ccc12)c1ccccn1 (centres unmarked) [Compound 368] has an IC50 of 1 to 10 µM. CC(Nc1nc(-c2cccnc2)nc2cc(-c3ccc(F)c(F)c3)ccc12)c1ccccn1 (centres unmarked) [Compound 369] gave an IC50 of 1 to 10 µM. CC(Nc1nc(-c2cccnc2)nc2cc(-c3cc(F)cc(F)c3)ccc12)c1ccccn1 (centres unmarked) [Compound 370] showed an IC50 of 1 to 10 µM. With CC(Nc1nc(-c2cccnc2)nc2cc(-c3ccccc3F)ccc12)c1ccccn1 (centres unmarked) [Compound 371] the IC50 was less than 1 µM. For Fc1cccc(-c2ccc3nc(-c4cccnc4)nc(NCc4ccccn4)c3c2)c1 [Compound 373], the IC50 was greater than 10 µM. For Fc1ccc(-c2ccc3nc(-c4cccnc4)nc(NCc4ccccn4)c3c2)cc1 [Compound 374], the IC50 was 1 to 10 µM. In the case of [2H]C([2H])([2H])Nc1nc(-c2cccnc2)nc2cc(-c3cc(F)ccc3F)ccc12 [Compound 390], the IC50 is reported as 1 to 10 µM. CNc1nc(-c2cnccn2)nc2cc(-c3ccccc3F)ccc12 [Compound 391] was tested, and the IC50 was 1 to 10 µM. With CNc1nc(-c2cnccn2)nc2cc(-c3cccc(F)c3)ccc12 [Compound 392] the IC50 was 1 to 10 µM.
